The subject of series [1] is P. aeruginosa. As to the kind of experiment: MIC, 96-well CAMHB, 10^5 to 10^2 CFU/mL in 24 hours. To be noted: for MIC: Pseudomonas aeruginosa. Type of series: cell-based, Pseudomonas aeruginosa. The method, boiled down: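 Broth microdilution in CAMHB with about 5×10^5 CFU/mL inoculum, incubated 24 h at 37 °C with graded polyamine compound concentrations. Surviving CFU/mL determined by plating each well on TSA for 24 h at 37 °C; n=8 per concentration.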

In series [2] the test system is A. baumannii. The description is as above. To be noted: for MIC: Acinetobacter baumannii. It counts as cell-based, Acinetobacter baumannii. Here is the method:
To determine the MIC of polyamine compounds, the protocol described herein was used.
In brief, a 0.5 McFarland of each bacterial isolate was made. A 0.5 McFarland is a measure of turbidity in a liquid sample that contains approximately 1×10^∧8 CFU/mL. The 0.5 McFarland standard was diluted in cation adjusted Mueller Hinton Broth (CAMHB), and 50 μL of broth were added to a well of a 96-well plate. In addition, 50 μL of CAMHB that contained a desired concentration of antimicrobial were also added to the well for a final volume of 100 μL and a final concentration of approximately 5×10^4 CFU/well (which equated to approximately 5×10^5 CFU/mL). Each well contained a desired amount of polyamine compound in order to experimentally determine the MIC. Each 96-well plate was incubated at 37° C. for 24 hours. The contents of each well were plated on tryptic soy agar (TSA). TSA plates were incubated for 37° C. for 24 hours after which the number of CFU were counted and used to calculate the CFU/mL that remained after exposure to varying concentrations of compound. This procedure was repeated n=8 times for each concentration of antimicrobial.
A 0.5 McFarland of A. baumannii is made. A 0.5 McFarland is a measure of turbidity in a liquid sample that contains approximately 7.5×10^7 CFU/mL. The 0.5 McFarland standard is diluted in CAMHB and 50 μL of broth is added to a well of a 96-well plate. In addition, 50 μL of CAMHB that contains a desired concentration of antimicrobial is added to the well for a final volume of 100 μL and a final concentration of approximately 5×10^4 CFU/well (which equates to approximately 5×10^5 CFU/mL). Each well contains a desired amount of CZ compound in order to experimentally determine the MIC. Each 96-well plate is incubated at 37° C. for 24 hours. The contents of each well is plated on tryptic soy agar (TSA). TSA plates is incubated at 37° C. for 24 hours after which the number of CFUs is counted and used to calculate the CFU/mL that remain after exposure to varying concentrations of compound. This procedure is repeated n=8 times for each concentration of antimicrobial. […]

The test system of series [3] is MRSA biofilms. In words: MBEC, MBEC Inoculation Tray (Innovotech), to 10^2 CFU/peg in 24 hours. It counts as cell-based, Staphylococcus aureus. From the text: To determine the MBEC of each polyamine compound, the MBEC Inoculation Tray by Innovotech, formerly known as the Calgary biofilm device, was used. Within this device, biofilms grow on the surface of polystyrene pegs, 96 of which are attached to a lid. These pegs are inserted into a flat bottom 96-well plate. In this instance, the MBEC of a molecule was defined as the concentration of compound (in μg/mL) required to reduce 10^5 or 10^6 CFU/peg (biofilm levels varied by isolate) to 10^2 CFU/peg in a 24-hour period.
Following the manufacturer's guidelines, biofilms were grown on the surface of each peg by first making a 0.5 McFarland of each isolate. The 0.5 McFarland was diluted 1:100 in CAMHB. Into each well of a flat bottom 96-well plate, 150 μL of broth were pipetted. The plate was shaken at 100 rpm for 24 hours (P. aeruginosa and A. baumannii) or 48 hours (MRSA). The pegs were then placed into a separate flat bottom 96-well plate for 10 seconds with 200 μL of phosphate buffered saline (PBS) in each well to remove nonadherent cells. The lid was then placed into a 96-well plate that contained varying concentrations of antimicrobial with 200 μL per well. The plate was incubated for 24 hours at 37° C. after which time 100 μL of broth were plated on TSA. TSA plates were incubated 24 hours at 37° C. and the number of CFU counted to calculate the CFU/peg. In this instance, the MBEC was defined as the concentration of antimicrobial required to reduce 10^5 or 10^6 CFU/peg to 10^2 CFU/peg in a 24 hour period.
MBEC data were collected using the MBEC Inoculation Tray by Innovotech. The MBEC was defined in these preliminary results as the concentration of antimicrobial required to reduce 10^5 or 10^6 CFU/peg to 10^2 CFU/peg in a 24-hour period.

The test system of series [4] is L-929 cells (ATCC CCL-1). As to the kind of experiment: Minimal Essential Media (MEM) Elution cytotoxicity test. Type of series: cell-based. The method, boiled down: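 L-929 cells (ATCC CCL-1) were seeded in multiwell plates and grown to roughly 80% confluence. Test article dilutions (1:2, 1:4, 1:8, 1:16) and control extracts were applied in triplicate and incubated 48±3 hours at 37±1° C. in 5±1% CO2. Wells were scored microscopically for morphological cytotoxicity on a 0–4 scale and averaged; Pass required grade not greater than 2 per USP <87>.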

From patent US10440955B2, “Methods comprising a biocidal polyamine” (Curza Global, LLC, priority 2013, dated 2019) come the findings set out here.

Where a name gives a salt, the structure may show the parent alone. Read-outs that look alike come from different tables or passages of the source.

Take `NCCCNCCCNCc1cc(CNCCCNCCCN)cc(-c2ccccc2)c1` [CZ-58, N^1,N^1′-([1,1′-biphenyl]-3,5-diylbis(methylene))bis(N^3-(3-ammoniopropyl)propane-1,3-diaminium) chloride]: the “MIC (P. aeruginosa)” value in series [1] (Table 5) is given as “++ to +++”. Further, the MIC in series [2] (read-out: MIC (A. bumannii)) is 50 to 100 µM. In addition, the “MBEC μg/mL (μM) MRSA” value was 30 µg/mL in series [3] (Table 4) and “(68) μM” in series [3] (Table 4, value in parentheses). In addition, the “Results Pass/Fail” value was “Fail (a numerical grade greater than 2 is considered a cytotoxic effect, or a failing score (Fail))” in series [4] (Table 10A, 25 μg/mL); “Fail (a numerical grade greater than 2 is considered a cytotoxic effect, or a failing score (Fail))” in series [4] (Table 10A, dilution 1:2 of 25 μg/mL); “Pass (receives a passing score (Pass) if the reactivity grade is not greater than grade 2 or a mild reactivity)” in series [4] (Table 10A, dilution 1:4 of 25 μg/mL); “Pass (receives a passing score (Pass) if the reactivity grade is not greater than grade 2 or a mild reactivity)” in series [4] (Table 10A, dilution 1:8 of 25 μg/mL); “Pass (receives a passing score (Pass) if the reactivity grade is not greater than grade 2 or a mild reactivity)” in series [4] (Table 10A, dilution 1:16 of 25 μg/mL).

For `NCCCNCCCNCc1ccccc1` [CZ-7, benzylnorspermidine], the MIC in series [1] (Table 3A c2, read-out: MICs (μg/mL): P. aeruginosa) is over 500 µg/mL; in series [1] (Table 5, read-out: MIC (P. aeruginosa)), over 100 µM; in series [2] (Table 3A c3, read-out: MICs (μg/mL): A. baumannii) it was over 500 µg/mL; in series [2] (Table 4, value in parentheses, read-out: MIC μg/mL (μM) A. baumannii) it was over 2260 µM; in series [2] (Table 4, read-out: MIC μg/mL (μM) A. baumannii), over 500 µg/mL. Besides, the “MBEC μg/mL (μM) MRSA” value in series [3] (Table 4) is over 500 µg/mL; in series [3] (Table 4, value in parentheses), “(>2,259) μM”.

`NCCCNCCCNCc1cccc(CNCCCNCCCN)c1` [CZ-25, N^1,N^1′-(1,3-phenylenebis(methylene))bis(N3-(3-ammoniopropyl)propane-1,3-diaminium) chloride]: the MIC in series [1] (read-out: MICs (μg/mL): P. aeruginosa, Table 3A c2) is 500 µg/mL; in series [2] (read-out: MIC (A. bumannii)) it was over 100 µM. For the same compound, the “MBEC μg/mL (μM) MRSA” value was 25 µg/mL in series [3] (Table 4) and “(69) μM” in series [3] (Table 4, value in parentheses).

For the compound `CN[C@H](CC(C)C)C(=O)N[C@H]1C(=O)N[C@@H](CC(N)=O)C(=O)N[C@H]2C(=O)N[C@H]3C(=O)N[C@H](C(=O)N[C@H](C(=O)O)c4cc(O)cc(O)c4-c4cc3ccc4O)[C@H](O)c3ccc(c(Cl)c3)Oc3cc2cc(c3O[C@@H]2O[C@H](CO)[C@@H](O)[C@H](O)[C@H]2O[C@H]2C[C@](C)(N)[C@H](O)[C@H](C)O2)Oc2ccc(cc2Cl)[C@H]1O` [vancomycin, reference compound], the “MBEC μg/mL (μM) MRSA” value in series [3] (Table 4) is over 500 µg/mL; in series [3] (Table 4, value in parentheses), “(>345) μM”.

For the compound `CC(C)CNCCCNCCCNCc1cc(CNCCCNCCCNCC(C)C)cc(-c2ccccc2)c1` [CZ-86, N^1,N^1′-([1,1′-biphenyl]-3,5-diylbis(methylene))bis(N^3-(3-(isobutylamino)propyl)propane-1,3-diamine), hydrochloride salt], the “MIC (P. aeruginosa)” value in series [1] (Table 5) is “++ to +++”. In series [2] (read-out: MIC (A. bumannii)), the MIC is under 50 µM. The “Results Pass/Fail” value in series [4] (Table 8A, 400 μg/mL) is recorded as “Fail (a numerical grade greater than 2 is considered a cytotoxic effect, or a failing score (Fail))”; in series [4] (Table 8A, dilution 1:2 of 400 μg/mL) it was “Fail (a numerical grade greater than 2 is considered a cytotoxic effect, or a failing score (Fail))”; in series [4] (Table 8A, dilution 1:4 of 400 μg/mL), “Fail (a numerical grade greater than 2 is considered a cytotoxic effect, or a failing score (Fail))”; in series [4] (Table 8A, dilution 1:8 of 400 μg/mL) it was “Pass (receives a passing score (Pass) if the reactivity grade is not greater than grade 2 or a mild reactivity)”; in series [4] (Table 8A, dilution 1:16 of 400 μg/mL), “Pass (receives a passing score (Pass) if the reactivity grade is not greater than grade 2 or a mild reactivity)”.

In the case of “Polymyxin B sulfate [reference compound]”, the “MICs (μg/mL): A. baumannii” value in series [2] (Table 3A c3) came to 2 µg/mL. The “MIC μg/mL (μM) A. baumannii” value in series [2] (Table 4) was 1 µg/mL; in series [2] (Table 4, value in parentheses) it was “(0.7) μM”.

Regarding `NCCCNCCCNCc1cc(CNCCCNCCCN)cc(CNCCCNCCCN)c1` [CZ-52, N^1,N^1′,N^1″-(benzene-1,3,5-triyltris(methylene))tris(N^3-(3-aminopropyl)propane-1,3-diamine), hydrochloride salt], the “MBEC μg/mL (μM) MRSA” value in series [3] (Table 4) is 20 µg/mL; in series [3] (Table 4, value in parentheses), “(40) μM”. The “Results Pass/Fail” value in series [4] (Table 9A, 3.125 μg/mL) is reported as “Pass (receives a passing score (Pass) if the reactivity grade is not greater than grade 2 or a mild reactivity)”; in series [4] (Table 9A, 6.25 μg/mL) it was “Fail (a numerical grade greater than 2 is considered a cytotoxic effect, or a failing score (Fail))”; in series [4] (Table 9A, 12.5 μg/mL), “Fail (a numerical grade greater than 2 is considered a cytotoxic effect, or a failing score (Fail))”; in series [4] (Table 9A, 25 μg/mL) it was “Fail (a numerical grade greater than 2 is considered a cytotoxic effect, or a failing score (Fail))”; in series [4] (Table 9A, 1.563 (unit not given)), “Pass (receives a passing score (Pass) if the reactivity grade is not greater than grade 2 or a mild reactivity)”.
